Laboratory results from paper PMC9502404, “The Strong Anti-Tumor Effect of Smp24 in Lung Adenocarcinoma A549 Cells Depends on Its Induction of Mitochondrial Dysfunctions and ROS Accumulation” (Toxins, 2022).
Where no end group is shown, it is not given here.

Key:
MRC-5 = assay: MTT cell viability assay, normal cells; format: cell-based; conditions: time not stated, MRC-5 not described in methods
A549 cells = assay: MTT cell viability and proliferation assay; format: cell-based, human; conditions: Smp24 1.25-20 μM, 12, 24 and 48 h tested, time of the IC50 not stated, triplicate, consistent with ref 10
Description: Cellular viability was analyzed via MTT method as reported in our previous study. Briefly, A549 cells (1 × 10^4 cells/well) were cultured in 96-well plates and treated with a gradient concentration of Smp24 (1.25–20 μM) at different time intervals (12, 24, and 48 h). A549 cells were pre-incubated with different inhibitors including 40 μΜ Nec-1, 40 μM Z-DEVD-FMK, 40 μM Z-VAD-FMK, and 2 mM NAC for 30 min before 5 μM Smp24 was incubated with the cells for 12 h to investigate the responsibility of different signaling pathways in the cytotoxic effects of Smp24. After incubation, 10 µL MTT (5 mg/mL) was then added and incubated for 4 h at 37 °C in the dark. Subsequently, 200 µL DMSO was applied into each well after discarding the cell medium, and the cell viability was estimated by calculating the absorbance value at 490 nm via a microplate reader (Tecan Company, Männedorf, Switzerland). The experiments were performed in triplicate.

For IWSFLIKAATKLLPSLFGGGKKDS [Smp24], the IC50 (MRC-5) was roughly 14.7 µM and the IC50 (A549 cells) was roughly 4.06 µM.
